# Experimental data published in patent publication US20220065865A1, “METHODS OF TREATMENT AND DIAGNOSIS OF TUMOURS” (UEA ENTERPRISES LIMITED, priority 2018, published 2022).
# What was measured:
# [1] = test system: chondrosarcoma tumour spheres (SW1353); experiment: Small molecule treatment of chondrosarcoma tumour spheres, nuclei counted by DAPI staining; assay type: cell-based, human; details: bone 3D tumour spheres; for cancer cell number in comparison with Control 1: 72 hours, Control 1 = 0.1% DMSO
# Procedure: (§1) SW1353 (chondrosarcoma) cells were cultured in 1:1 DMEM/F-12 Supplement (Thermo Fisher Scientific) containing 10% (volume/volume) fetal bovine serum (Sigma Aldrich). Cells were fed with culture medium every other day and maintained at 37° C. in a […] atmosphere of 5% CO2. Cells were obtained from ATCC and authenticated by STR profiling. Cells were regularly monitored for Mycoplasma infection by PCR. Phenotypic checks for interleukin 1 response ensured cell phenotype was maintained.
# For the experiment reported in FIG. 8(b) the culture medium additionally contained 1% (v/v) penicillin streptomycin.
# (§2) Tumour spheres were constructed as previously described (Greco, K. V. et al. High density micromass cultures of a human chondrocyte cell line: a reliable assay system to reveal the modulatory functions of pharmacological agents. Biochem Pharmacol 82, 1919-29 (2011), the contents of which are incorporated herein by reference). Briefly, 80% confluent monolayer cell cultures were released by trypsin-EDTA and resuspended in growth medium at a density of 4.1×10^4 cells/mL. Tumour spheres were achieved by pipetting 20 μL of cell suspension into individual wells of 24 well plates. Following a 3 hour intermolecular cohesion period 500 μL of growth medium was gently added. Cultures formed three dimensional spheres over the next 24 hours.
# Growth media on chondrosarcoma tumour spheres was replaced with fresh media containing 0.1% DMSO (control 1), fresh media containing 0.2% DMSO (control 2), fresh media containing 50 μM small molecule 3-(N-(3,4-dichlorophenyl)carbamoyl)-5-norbornene-2-carboxylic acid, also named 3-{[(3,4-dichlorophenyl)amino]carbonyl}bicyclo[2.2.1]hept-5-ene-2-carboxylic acid, known as CADD522, fresh media containing 100 μM small molecule (CADD522). […] DAPI fluorescence was excited at 365 nm and emission collected between 420 and 470 nm. Nuclear DAPI staining was segmented with the number of the nuclei quantified using ImageJ. […] Statistical significance ([…]) was calculated using an unpaired t test with Prism 6.
# [2] = test system: RUNX2; experiment: qPCR transcriptional profiling of transfected tumour spheres: RUNX2; assay type: cell-based, human; details: 50 nM mimic, pooled RNA of 6 replicates, normalised to ACTB, compared to control tissue
# Procedure: (§3) Once tumour spheres had formed, tRF mimics (RNA), tRF inhibitors (LNA), miRNA mimics (LNA) and miRNA inhibitors (LNA) (Exiqon) were transfected using Lipofectamine 3000 (Thermo Fisher Scientific) in reduced serum media (Thermo Fisher Scientific) for a final concentration of 50 nM consisting of equal parts of each mimic or inhibitor (sequences in Table 1 above). Confirmation of cell entry at 50 nM concentration was determined after performing the transfection with FAM labelled sequences. After 6 hours of incubation reduced serum media containing mimics or inhibitors was replaced with fresh growth media. Tumour spheres were subjected to histology, fluorescence microscopy and transcriptional profiling 48 hours later. Transfections were performed in triplicate in 3 independent experiments.
# (§4) We used qPCR as previously described (Fricke, C., Green, D., Smith, D., Dalmay, T. & Chapman, T. MicroRNAs influence reproductive responses by females to male sex peptide in Drosophila melanogaster. Genetics 198, 1603-19 (2014), the contents of which are incorporated herein by reference). Due to a limited amount of RNA, qPCR was performed on pools of control tissue, low grade, intermediate grade and high grade tumours. We also extracted and pooled RNA from 6 replicates of tumour spheres treated with a tRF-Gly-TCC mimic. […]
# [3] = test system: YBX1; experiment: qPCR transcriptional profiling of transfected tumour spheres: YBX1; assay type: cell-based, human; details: 50 nM mimic, pooled RNA of 6 replicates, normalised to ACTB
# Procedure: as §3, §4
# [4] = molecular target: YBX1 (Homo sapiens, UniProt P67809); details: Goodarzi et al., Cell 161, 790-802 (2015); cited from earlier work
# [5] = test system: chondrosarcoma tumour spheres (SW1353); experiment: Tumour sphere assay with LNA and RNA transfection, histology and fluorescence microscopy; assay type: cell-based, human; details: 50 nM, 48 hours after transfection
# Procedure: as §1
# as §2, with “Following a 3 hour intermolecular cohesion period 500 μL of growth medium was gently added. Cultures formed three dimensional spheres over the next 24 hours.” left out
# as §3, with “After 6 hours of incubation reduced serum media containing mimics or inhibitors was replaced with fresh growth media.” left out, “Transfections were performed in triplicate in 3 independent experiments.” left out
# Tumour spheres were fixed in 3.7% formaldehyde and treated with 0.2% Triton-X 100. […] DAPI fluorescence was excited at 365 nm and emission collected between 420 and 470 nm. Texas Red-X Phalloidin fluorescence was excited at 558 nm and emission collected through a 615 nm LP filter. Nuclear DAPI staining was segmented with the number and size of the nuclei quantified using ImageJ.
# [6] = test system: SOX9; experiment: qPCR transcriptional profiling of transfected tumour spheres: SOX9; assay type: cell-based, human; details: 50 nM mimic, pooled RNA of 6 replicates, normalised to ACTB, compared to control tissue
# Procedure: as §3, §4
# [7] = test system: HDAC4; experiment: qPCR transcriptional profiling of transfected tumour spheres: HDAC4; assay type: cell-based, human; details: 50 nM mimic, pooled RNA of 6 replicates, normalised to ACTB, compared to high grade tumours
# Procedure: as §3, §4
# [8] = test system: PTHLH; experiment: qPCR transcriptional profiling of transfected tumour spheres: PTHLH; assay type: cell-based, human; details: 50 nM mimic, pooled RNA of 6 replicates, normalised to ACTB
# Procedure: as §3, §4
# [9] = test system: ANG; experiment: qPCR transcriptional profiling of transfected tumour spheres: ANG; assay type: cell-based, human; details: 50 nM mimic, pooled RNA of 6 replicates, normalised to ACTB
# Procedure: as §3, §4
# [10] = test system: IHH; experiment: qPCR transcriptional profiling of transfected tumour spheres: IHH; assay type: cell-based, human; details: 50 nM mimic, pooled RNA of 6 replicates, normalised to ACTB
# Procedure: as §3, §4
# [11] = test system: TP53; experiment: qPCR transcriptional profiling of transfected tumour spheres: TP53; assay type: cell-based, human; details: 50 nM mimic, pooled RNA of 6 replicates, normalised to ACTB, compared to control tissues
# Procedure: as §3, §4
# YBX1 (Homo sapiens, UniProt P67809), sequence (P67809 whole entry): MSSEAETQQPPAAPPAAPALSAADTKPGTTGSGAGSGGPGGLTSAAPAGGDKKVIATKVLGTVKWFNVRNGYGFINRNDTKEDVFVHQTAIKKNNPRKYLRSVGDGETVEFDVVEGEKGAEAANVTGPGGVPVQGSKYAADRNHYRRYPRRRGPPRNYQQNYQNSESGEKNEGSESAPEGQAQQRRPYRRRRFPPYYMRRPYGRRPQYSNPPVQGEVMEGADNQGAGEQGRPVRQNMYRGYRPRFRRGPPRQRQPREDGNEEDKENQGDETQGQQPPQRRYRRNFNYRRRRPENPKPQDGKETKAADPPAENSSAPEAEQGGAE
Compound,cancer cell number in comparison with Control 1 ([1]; 50 μM),cancer cell number in comparison with Control 1 ([1]; 100 μM),"cancer cell number compared to controls ([1]; two biological replicate controls, unpaired t test)",RUNX2 mean relative expression [2],YBX1 mean relative expression [3],binding to YBX1 [4],decrease in nuclear area compared to untreated tumour spheres [5],"phenotypic effect (nuclear and F-actin histology, inverted microscopy) [5]","nuclear area of tumour spheres ([5]; n=47 nuclei, untreated 488±12.4 μm^2 (n=230))",SOX9 mean relative expression [6],HDAC4 mean relative expression [7],PTHLP expression [8],ANG mean relative expression [9],IHH mean relative expression [10],TP53 mean relative expression [11]
"O=C(O)C1C2C=CC(C2)C1C(=O)Nc1ccc(Cl)c(Cl)c1 (stereo not shown) [CADD522, 3-(N-(3,4-dichlorophenyl)carbamoyl)-5-norbornene-2-carboxylic acid]",about 70%,about 30%,significant reduction of cancer cell number,,,,,,,,,,,,
"TRF-Gly-TCC: endogenous tRNA derived fragment containing a SCUBYC sequence motif (GCGUUGGUGGUAUAGUGGUGAGCAUAGCUGCC; listed as RNA, chemistry not fully specified)",,,,reduces RUNX2 expression to control levels,increased expression,substantial binding,,,,,,,,,
"tRF-Gly-TCC mimic: RNA mimic, sequence GCGUUGGUGGUAUAGUGGUGAGCAUAGCUGCC (listed as RNA, chemistry not given here)",,,,reduced to the same level of expression as control tissue,,,more than two-fold decrease in nuclear area,"low cancer cell number, shrunken nuclei and visible changes to morphology",215±16.8 μm^2,remains at a reduced expression,increases further,lost,greatly reduced,greatly reduced,reduces to be consistent with control tissues
